# Assays:
# Salmonella typhimurium [1] = test: Antimutagenic activity against sodium azide-induced revertant colonies in Salmonella typhimurium TA100 assessed as number of revertant colonies measured cotreatment at 18 uM (reference value: 1588 +/- 55.6) in absence of mammalian S9 fraction; type: functional, Salmonella enterica subsp. enterica serovar Typhimurium
# Salmonella typhimurium [2] = test: Antimutagenic activity against 1-nitropyrene-induced revertant colonies in Salmonella typhimurium TA98 1,8 DNP assessed as inhibition of mutagenicity measured at 900 uM; type: functional, Salmonella enterica subsp. enterica serovar Typhimurium; details: Salmonella enterica
# Salmonella typhimurium [3] = test: Antimutagenic activity against 4-nitroquinoline N-oxide-induced revertant colonies in Salmonella typhimurium TA98 assessed as inhibition of mutagenicity measured at 90 to 180 uM; type: functional, Salmonella enterica subsp. enterica serovar Typhimurium
# Escherichia coli [4] = test: Antimutagenic activity against methyl methansulfonate-induced revertant colonies in Escherichia coli WP2uvrA assessed as number of revertant colonies measured cotreatment at 9 uM (reference value: 485.3 +/- 17.5) in absence of mammalian S9 fraction; type: functional
# Escherichia coli [5] = test: Antimutagenic activity against 2-aminoanthracene-induced revertant colonies in Escherichia coli WP2uvrA assessed as number of revertant colonies measured pretreatment at 900 uM (reference value: 178.7 +/- 11.8) in presence of mammalian S9 fraction; type: functional
# Salmonella typhimurium [6] = test: Antimutagenic activity against 1,8-dinitropyrene-induced revertant colonies in Salmonella typhimurium TA98 assessed as inhibition of mutagenicity measured at 90 to 180 uM; type: functional, Salmonella enterica subsp. enterica serovar Typhimurium
# Salmonella typhimurium [7] = test: Antimutagenic activity against sodium azide-induced revertant colonies in Salmonella typhimurium TA100 assessed as number of revertant colonies measured pretreatment at 90 uM (reference value: 1968 +/- 46.9) in absence of mammalian S9 fraction; type: functional, Salmonella enterica subsp. enterica serovar Typhimurium
# Salmonella typhimurium [8] = test: Antimutagenic activity against 2-nitrofluorene-induced revertant colonies in Salmonella typhimurium TA98 assessed as inhibition of mutagenicity measured at 90 to 180 uM; type: functional, Salmonella enterica subsp. enterica serovar Typhimurium
# Salmonella typhimurium [9] = test: Antimutagenic activity against 2-aminoanthracene-induced revertant colonies in Salmonella typhimurium TA100 assessed as number of revertant colonies measured post-treatment at 9 uM (reference value: 642.7 +/- 2.7) in presence of mammalian S9 fraction; type: functional, Salmonella enterica subsp. enterica serovar Typhimurium
# Escherichia coli [10] = test: Antimutagenic activity against 2-aminoanthracene-induced revertant colonies in Escherichia coli WP2uvrA assessed as number of revertant colonies measured post-treatment at 18 uM (reference value: 308 +/- 4) in presence of mammalian S9 fraction; type: functional
# Escherichia coli [11] = test: Antimutagenic activity against 2-aminoanthracene-induced revertant colonies in Escherichia coli WP2uvrA assessed as number of revertant colonies measured pretreatment at 90 uM (reference value: 178.7 +/- 11.8) in presence of mammalian S9 fraction; type: functional
# Salmonella typhimurium [12] = test: Antimutagenic activity against 2-aminoanthracene-induced revertant colonies in Salmonella typhimurium TA100 assessed as number of revertant colonies measured pretreatment at 9 uM (reference value: 481.3 +/- 5.3) in presence of mammalian S9 fraction; type: functional, Salmonella enterica subsp. enterica serovar Typhimurium
# Escherichia coli [13] = test: Antimutagenic activity against methyl methansulfonate-induced revertant colonies in Escherichia coli WP2uvrA assessed as number of revertant colonies measured cotreatment at 180 uM (reference value: 485.3 +/- 17.5) in absence of mammalian S9 fraction; type: functional
# Salmonella typhimurium [14] = test: Antimutagenic activity against 2-nitrofluorene-induced revertant colonies in Salmonella typhimurium TA98 assessed as inhibition of mutagenicity measured at 900 uM; type: functional, Salmonella enterica subsp. enterica serovar Typhimurium; details: Salmonella enterica
# Escherichia coli [15] = test: Antimutagenic activity against 2-aminoanthracene-induced revertant colonies in Escherichia coli WP2uvrA assessed as number of revertant colonies measured cotreatment at 9 uM (reference value: 366 +/- 10.3) in presence of mammalian S9 fraction; type: functional
# Salmonella typhimurium [16] = test: Antimutagenic activity against sodium azide-induced revertant colonies in Salmonella typhimurium TA100 assessed as number of revertant colonies measured cotreatment at 90 uM (reference value: 1588 +/- 55.6) in absence of mammalian S9 fraction; type: functional, Salmonella enterica subsp. enterica serovar Typhimurium
# Salmonella typhimurium [17] = test: Antimutagenic activity against sodium azide-induced revertant colonies in Salmonella typhimurium TA100 assessed as number of revertant colonies measured cotreatment at 180 uM (reference value: 1588 +/- 55.6) in absence of mammalian S9 fraction; type: functional, Salmonella enterica subsp. enterica serovar Typhimurium
# Salmonella typhimurium [18] = test: Antimutagenic activity against 4-nitroquinoline N-oxide-induced revertant colonies in Salmonella typhimurium TA98 assessed as inhibition of mutagenicity measured at 9 to 18 uM; type: functional, Salmonella enterica subsp. enterica serovar Typhimurium
# Escherichia coli [19] = test: Antimutagenic activity against methyl methansulfonate-induced revertant colonies in Escherichia coli WP2uvrA assessed as number of revertant colonies measured post-treatment at 90 uM (reference value: 726.7 +/- 12.7) in absence of mammalian S9 fraction; type: functional
smiles,measurement,setting,value
CCCCCC/C(C=O)=C\c1ccccc1,Activity,Salmonella typhimurium [1],1501
same,inhibition at 900 µM,Salmonella typhimurium [2],> 40%
same,inhibition (INH),Salmonella typhimurium [3],25%
same,Activity,Escherichia coli [4],484
same,Activity,Escherichia coli [5],141.3
same,inhibition (INH),Salmonella typhimurium [6],25%
same,Activity,Salmonella typhimurium [7],1801
same,inhibition (INH),Salmonella typhimurium [8],25%
same,Activity,Salmonella typhimurium [9],637.3
same,Activity,Escherichia coli [10],292
same,Activity,Escherichia coli [11],152.3
same,Activity,Salmonella typhimurium [12],465.3
same,Activity,Escherichia coli [13],448
same,inhibition at 900 µM,Salmonella typhimurium [14],> 40%
same,Activity,Escherichia coli [15],336.8
same,Activity,Salmonella typhimurium [16],1477
same,Activity,Salmonella typhimurium [17],1457
same,inhibition (INH),Salmonella typhimurium [18],<25%
same,Activity,Escherichia coli [19],517.3

# Source: ChEMBL document CHEMBL3351515, “α-Hexylcinnamaldehyde inhibits the genotoxicity of environmental pollutants in the bacterial reverse mutation assay” (2014)
